Results from US20220041647A1, “ESTRA-1,3,5(10)-TRIENE COMPOUNDS CONDENSED IN POSITION 16(17) WITH A PYRAZOLE RING AS INHIBITORS OF 17-HSD1” (FORENDO PHARMA LTD, priority 2018, published 2022).

Tests used:
Type in all cases: biochemical
[1] = tested on: HSD1 enzyme that is expressed in rabbit placenta tissue; experiment: Inhibition of E1 to E2 conversion in rabbit placenta tissue homogenate; details: compound 100 nM, 30 nM estrone, 1 mM β-NADPH, 30 min
Method: The assay is based on an enzymatic reaction where HSD1 enzyme that is expressed in rabbit placenta tissue converts its natural substance estrone (E1) to estradiol (E2) in the presence of a co-factor β-NADPH.
Homogenization of rabbit placenta tissue: Weight a piece of the frozen tissue into a Precellys ck28 bead tube. Add buffer solution (20 mM KH2PO4 with 1 mM EDTA, pH 7.4) in 1:2 ratio (e.g. 300 mg of tissue:600 μl reaction buffer solution). Insert the bead tubes to homogenizer and homogenize 2×30 s. 6000 rpm.
Centrifugated 5 min., 2600 rpm at +4° C. and collect supernatant. Aliquots of homogenate are stored in −80° C.
Assay—Inhibition of E1 to E2 conversion in rabbit placenta tissue: The reaction takes place in a buffer solution (20 mM KH2PO4 with 1 mM EDTA, pH 7,4), including appropriate amount of rabbit placenta homogenate, co-factor (1 mM β-NADPH), Substrate (30 nM estrone), labelled substrate as tracer (5 nM [^3H]-estrone), and the potential inhibitor at concentrations 1 μM or 0.1 μM. Inhibitor stock solutions were prepared in DMSO. Final concentration of DMSO was adjusted to 1% in all samples. During a 30-minute incubation part of the estrone is converted to estradiol. The reaction is stopped by lowering the pH to 1 with 10% trichloro acetic acid (TCA). The substrate and conversion products are analyzed by HPLC and a Scintillation counter analyzer. Total radioactivity for estrone and estradiol were determined in each sample and percent conversion of estrone to estradiol was calculated according to the following formula:
% conversion=100×{(cpm estradiol in sample with inhibitor)/[(cpm estrone in sample with inhibitor)+(cpm estradiol in sample with inhibitor)]}/{(cpm estradiol in sample without inhibitor)/[(cpm estrone in sample without inhibitor)+(cpm estradiol in sample without inhibitor)]}.
(§1) Percent inhibition was calculated followingly: % inhibition=100−% conversion.

[2] = biological target: T1, recombinant human 17β-HSD1 (Homo sapiens, UniProt P14061); experiment: Inhibition of recombinant human 17β-HSD1 (estrone to estradiol conversion, HPLC/radioactivity); details: compound 100 nM; 30 nM estrone, 1 mM NADPH, 30 min RT
T1 construct: made in house; host or cells: Sd9 (Sf9) insect cells, baculovirus (Bac to Bac Expression System)
T1 sequence (P14061 1-328): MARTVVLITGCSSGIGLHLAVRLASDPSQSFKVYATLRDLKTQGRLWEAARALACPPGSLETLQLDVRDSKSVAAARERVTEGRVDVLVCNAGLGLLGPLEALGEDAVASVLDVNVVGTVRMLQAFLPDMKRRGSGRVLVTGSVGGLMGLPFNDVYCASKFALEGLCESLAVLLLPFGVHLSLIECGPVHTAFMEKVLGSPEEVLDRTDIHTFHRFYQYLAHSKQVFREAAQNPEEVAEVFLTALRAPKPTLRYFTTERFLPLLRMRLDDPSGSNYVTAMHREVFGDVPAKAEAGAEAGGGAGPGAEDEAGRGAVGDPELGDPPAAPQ
Method: 17β-HSD1 production and isolation: Recombinant baculovirus was generated by the “Bac to Bac Expression System” (Invitrogen). Recombinant bacmid was transfected to Sd9 insect cells using “Cellfectin Reagent” (Invitrogen). 60 h later cells were harvested; the microsomal fraction was isolated as described by Puranen, T. J., Poutanen, M. H., Peltoketo, H. E., Vihko, P. T. and Vihko, R. K. (1994) Site-directed mutagenesis of the putative active site of human 17 β-hydroxysteroid dehydrogenase type 1. Biochem. J. 304: 289-293. Aliquots were stored frozen until determination of enzymatic activity.
Assay—Inhibition of recombinant human 17β-HSD1: Recombinant protein (1 μg/ml) was incubated in 20 mM KH2PO4 pH 7.4 with 30 nM estrone (including 800 000 cpm/ml of ^3H-estrone) and 1 mM NADPH for 30 min at RT, in the presence of the potential inhibitor at concentrations 1 μM or 0.1 μM. Inhibitor stock solutions were prepared in DMSO. Final concentration of DMSO was adjusted to 1% in all samples. The enzyme reaction was stopped by addition of 10% trichloroacetic acid (final concentration). Samples were centrifuged in a microtiter plate at 4000 rpm for 10 min. Supernatants were applied to reverse phase HPLC on a Waters Symmetry C18 column, equipped with a Waters Sentry Guard column. Isocratic HPLC runs were performed at RT at a flow rate of 1 ml/min in acetonitrile:water 48:52 as running solvent. Radioactivity was monitored in the eluate by a Scintillation Analyzer. Total radioactivity for estrone and estradiol were determined in each sample and percent conversion of estrone to estradiol was calculated according to the following formula:
% conversion=100×{(cpm estradiol in sample with inhibitor)/[(cpm estrone in sample with inhibitor)+(cpm estradiol in sample with inhibitor)]}/{[(cpm estradiol in sample without inhibitor)/[(cpm estrone in sample without inhibitor)+(cpm estradiol in sample without inhibitor)]}.
as §1

[3] = biological target: T2, recombinant human 17β-HSD2 (Homo sapiens, UniProt P37059); experiment: Inhibition of recombinant human 17β-HSD2 (estradiol to estrone conversion, HPLC/radioactivity); details: compound 1 μM; 50 nM estradiol, 1 mM NADH, 30 min RT
T2 construct: made in house; host or cells: Sd9 (Sf9) insect cells, baculovirus (Bac to Bac Expression System)
T2 sequence (P37059 1-387): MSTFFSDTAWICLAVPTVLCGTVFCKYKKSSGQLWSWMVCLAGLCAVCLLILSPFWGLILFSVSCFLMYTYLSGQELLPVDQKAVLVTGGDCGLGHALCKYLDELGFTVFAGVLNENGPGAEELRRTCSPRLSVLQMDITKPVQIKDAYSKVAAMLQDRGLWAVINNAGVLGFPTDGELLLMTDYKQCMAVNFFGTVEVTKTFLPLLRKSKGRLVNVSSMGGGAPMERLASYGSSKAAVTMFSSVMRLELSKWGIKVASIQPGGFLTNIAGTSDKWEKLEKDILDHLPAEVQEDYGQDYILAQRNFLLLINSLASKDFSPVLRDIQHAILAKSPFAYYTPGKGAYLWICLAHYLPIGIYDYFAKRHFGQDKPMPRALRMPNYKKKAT
Method: 17β-HSD2 production and isolation: Similarly to 173-HSD1 the Recombinant baculovirus was generated by the “Bac to Bac Expression System” (Invitrogen). Recombinant bacmid was transfected to Sd9 insect cells using “Cellfectin Reagent” (Invitrogen). 60 h later cells were harvested and supernatant were fractionated by the following protocol: • cells were dissolved into 40 ml of A-buffer (40 mM TRIS, pH8.0, 20% glycerol, 20 μM NAD, 0.4 mM PMSF, 150 mM NaCl, 0.5% dodecyl-β-maltoside+protease inhibitor cocktail) • cells were sonicated • lysate was incubated on ice for 15 min • lysate was centrifuged 5000 rpm 15 min, +4° C. • centrifugation of the supernatant 180 000 g 30 min, +4° C. • pellet was dissolved into 8 ml of A-buffer • not resuspended material was removed by centrifugation 5000 rpm 15 min, +4° C. • the clear supernatant was divided into 100 μl aliquots and were stored frozen until determination of enzymatic activity.
The amount of 173-HSD2 was analysed by immunoblotting and total protein concentration of each extract batch was determined.
Assay—Inhibition of recombinant human 17β-HSD2: Recombinant protein (4 μg/ml) was incubated in 20 mM KH2PO4 pH 8.5 with 50 nM estradiol (including 800 000 cpm/ml of ^3H-estradiol) and 1 mM NADH for 30 min at RT, in the presence of the potential inhibitor at concentrations 1 μM or 0.1 μM. Inhibitor stock solutions were prepared in DMSO. Final concentration of DMSO was adjusted to 1% in all samples. The enzyme reaction was stopped by addition of 10% trichloroacetic acid (final concentration). Samples were centrifuged in a microtiter plate at 4000 rpm for 10 min. Supernatants were applied to reverse phase HPLC on a Waters Symmetry C18 column, equipped with a Waters Sentry Guard column. Isocratic HPLC runs were performed at RT at a flow rate of1 ml/min in acetonitrile:water 48:52 as running solvent. Radioactivity was monitored in the eluate by a Scintillation Analyzer. Total radioactivity for estrone and estradiol were determined in each sample and percent conversion of estradiol to estrone was calculated according to the following formula:
% conversion=100×{(cpm estrone in sample with inhibitor)/[(cpm estradiol in sample with inhibitor)+(cpm estrone in sample with inhibitor)]}/{[(cpm estrone in sample without inhibitor)/[(cpm estradiol in sample without inhibitor)+(cpm estrone in sample without inhibitor)]}.
as §1

Row | Compound | Rabbit placenta inhibition % @100 nM [1] [%] | inhibition at 0.1 µM [2] [%] | inhibition at 1 µM [3] [%]
1 | C[C@]12CCC3c4cccc(F)c4CCC3C1[C@H](CCC(=O)Nc1cc(N3CCOCC3)ccn1)c1c[nH]nc12 (stereo partly drawn) [Compound 240, 3-((8aS,12S)-3-fluoro-8a-methyl-1,2,6b,7,8,8a,10,12,12a,12b-decahydronaphtho[2′,1′:4,5]indeno[1,2-c]pyrazol-12-yl)-N-(4-morpholinopyridin-2-yl)propanamide] | 35 | 84 | 2
2 | C[C@]12CCC3c4cccc(F)c4CCC3C1[C@H](CCC(=O)NC1CCOC1)c1c[nH]nc12 (stereo partly drawn) [Compound 225, 3-((8aS,12S)-3-fluoro-8a-methyl-1,2,6b,7,8,8a,10,12,12a,12b-decahydronaphtho[2′,1′:4,5]indeno[1,2-c]pyrazol-12-yl)-N-(tetrahydrofuran-3-yl)propanamide] | 10 | 88 | -2
3 | C[C@]12CCC3c4ccc(F)cc4CCC3C1[C@H](CCC(=O)Nc1cccc(F)n1)c1c[nH]nc12 (stereo partly drawn) [Compound 105, 3-((8aS,12S)-4-fluoro-8a-methyl-1,2,6b,7,8,8a,10,12,12a,12b-decahydronaphtho[2′,1′:4,5]indeno[1,2-c]pyrazol-12-yl)-N-(6-fluoropyridin-2-yl)propanamide] | 28 | 82 | 9
4 | C[C@]12CCC3c4ccccc4CCC3C1[C@H](CCC(=O)NC1CCC1)c1c[nH]nc12 (stereo partly drawn) [Compound 192, N-cyclobutyl-3-((8aS,12S)-8a-methyl-1,2,6b,7,8,8a,10,12,12a,12b-decahydronaphtho[2′,1′:4,5]indeno[1,2-c]pyrazol-12-yl)propanamide] | 14 | 86 | 2
5 | C[C@]12CCC3c4ccc(F)cc4CCC3C1[C@H](CCC(=O)Nc1cnccn1)c1c[nH]nc12 (stereo partly drawn) [Compound 120, 3-((8aS,12S)-4-fluoro-8a-methyl-1,2,6b,7,8,8a,10,12,12a,12b-decahydronaphtho[2′,1′:4,5]indeno[1,2-c]pyrazol-12-yl)-N-(pyrazin-2-yl)propanamide] | 34 | 67 | 4
6 | Cc1ccc(NC(=O)CC[C@@H]2c3c[nH]nc3[C@@]3(C)CCC4c5ccc(F)cc5CCC4C23)nn1 (stereo partly drawn) [Compound 111, 3-((8aS,12S)-4-fluoro-8a-methyl-1,2,6b,7,8,8a,10,12,12a,12b-decahydronaphtho[2′,1′:4,5]indeno[1,2-c]pyrazol-12-yl)-N-(6-methylpyridazin-3-yl)propanamide] | 55 | 48 | 1
7 | C[C@]12CCC3c4cccc(F)c4CCC3C1[C@H](CCC(=O)Nc1ccc(C#N)cn1)c1c[nH]nc12 (stereo partly drawn) [Compound 3, N-(5-Cyanopyridin-2-yl)-3-((8aS,12S)-3-fluoro-8a-methyl-1,2,6b,7,8,8a,10,12,12a,12b-decahydronaphtho[2′,1′:4,5]indeno[1,2-c]pyrazol-12-yl)propanamide] | 54 | 98 | 9
8 | Cc1ccc(NC(=O)CC[C@@H]2c3c[nH]nc3[C@@]3(C)CCC4c5ccccc5CCC4C23)nn1 (stereo partly drawn) [Compound 195, 3-((8aS,12S)-8a-methyl-1,2,6b,7,8,8a,10,12,12a,12b-decahydronaphtho[2′,1′:4,5]indeno[1,2-c]pyrazol-12-yl)-N-(6-methylpyridazin-3-yl)propanamide] | 61 | 70 | 10
9 | CN1CCN(c2ccc(NC(=O)CC[C@@H]3c4c[nH]nc4[C@@]4(C)CCC5c6ccccc6CCC5C34)nc2)CC1 (stereo partly drawn) [Compound 198, 3-((8aS,12S)-8a-methyl-1,2,6b,7,8,8a,10,12,12a,12b-decahydronaphtho[2′,1′:4,5]indeno[1,2-c]pyrazol-12-yl)-N-(5-(4-methylpiperazin-1-yl)pyridin-2-yl)propanamide] | 77 | 88 | 18
10 | Cn1cc(NC(=O)CC[C@@H]2c3c[nH]nc3[C@@]3(C)CCC4c5cccc(F)c5CCC4C23)cn1 (stereo partly drawn) [Compound 63, 3-((8aS,12S)-3-fluoro-8a-methyl-1,2,6b,7,8,8a,10,12,12a,12b-decahydronaphtho[2′,1′:4,5]indeno[1,2-c]pyrazol-12-yl)-N-(1-methyl-1H-pyrazol-4-yl)propanamide] | 62 | 96 | 2
